Measurements published in patent EP0029617A1, “Use of tertiary heterocyclic amines as synergists in pesticides; derivatives of cycloamines” (priority 1979, dated 1981).
Read-outs that look alike come from different tables or passages of the source.

How the values were obtained:
Drosophila melanogaster = assay: whole plant or invertebrate; assay type: in vivo
Source text: Die insektiziden Wirkungen von tertiären heterocyclischen Aminen und die synergistischen Eigenschaften mit dem Phosphorsäureester Dimethoat und dem Carbamat Dimetilan, getestet an Drosophila melanogaster.
Die Versuche wurden in Petrischalen von 10 cm Durchmesser ausgeführt. Es wurden zunächst die gerade noch wirksamen Konzentrationen von Dimethoat und Dimetilan bestimmt. Für Dimethoat wurde 0,005 % und für Dimetilan 0,0001 % als günstige Versuchskonzentration ermittelt. Die Aminkomponente wurde mit 1 ml 0,05%iger Lösung + 1 ml Aceton auf insektizide Wirkung getestet. Zur Bestimmung des Synergismus wurde 1 ml 0,05%ige Aminlösung + 1 ml 0,005.%ige Dimethoatlösung, bzw. + 1 ml 0,0001%ige Dimetilanlösung pro Petrischale eingesetzt. Alle Verdünnungen wurden mit Aceton als Lösungsmittel hergestellt.
In den Petrischalen wurden die Lösungen am Boden gut verteilt und 30 min lang antrocknen lassen. In jede Petrischale wurden 20 mit Kohlendioxid betäubte Drosophila eingezählt. Alle 5 min, insgesamt 12 mal, wurde die Anzahl der toten Drosophila ausgezählt und notiert. Die Zahlen wurden aufsummiert und im Verhältnis zur möglichen Zahl an toten Drosophila in % angegeben, wobei der Tot aller Drosophila innerhalb der ersten 5 min 100 % Wirkung entspricht. Jeder Versuch wurde mit 3 Wiederholungen durchgeführt. In Tabelle 1 sind die Mittelwerte der Ergebnisse zusammengestellt.
Zur Ermittlung des synergistischen Faktors wurden die Einzelwerte pro Zeiteinheit durch die für Dimethoat, bzw. Dimetilan für die jeweilige Zeiteinheit gefundenen Werte dividiert. Die Werte für jede Zeiteinheit wurden summiert und durch die Anzahl der Zeiteinheiten dividiert. Die Versuche wurden bei sonst stets gleichbleibenden Bedingungen bei Temperaturen von 20 - 22°C ausgeführt. Die Kontrollversuche zeigten bei Versuchsabschluß stets 0 % Mortalität. Hat die Substanz selbst eine insektizide Wirkung, so wurden die Wirkungsfaktoren für Dimethoat und Dimetilan nach Abzug des Substanzwertes berechnet und in der Tabelle aufgeführt.
Im Beispiel 1 war das Verhältnis von Insektizid und erfindungsgemäßem Amin 1 : 10 in den Gemischen mit Dimethoat. In der Tabelle 2 sind Verhältnisse von 1 : 1, 1 : 2 und 1 : 0,2 bei Versuchen mit Dimethoat aufgeführt, dabei wurde das Dimethoat immer in einer Konzentation von 0,005 % eingesetzt. Die Tabelle zeigt, daß auch bei diesen Verhältnissen noch eine gute synergistische Wirkung vorhanden ist, und es keineswegs einer großen überdosierung des Amins bedarf.

[1] = tested on: Kornkäfer (sitophilus granarius L); assay: whole plant or invertebrate; assay type: in vivo; conditions: for mortality at 1000 µg/mL: read-out: Wirksamkeit in % Substanz allein
Summary of the method: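 Acetone solutions (2 ml) were dried as films in 15 cm Petri dishes and 25 grain weevils added per dish, with a filter inserted after 1 h. Dead beetles were counted at 3 h at 19–21 °C, and % mortality and the synergistic factor were derived.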

[2] = 1 ml 0,05%ige amine solution + 1 ml 0,0001%ige Dimetilan solution
[3] = 1 ml 0,05%ige amine solution + 1 ml 0,005 %ige Dimethoat solution (Dimethoat : amine 1 : 10)
[4] = 1 ml 0,05%ige amine solution + 1 ml Aceton per dish, 20 flies, dead counted every 5 min, 12 times, mean values
[5] = amine 0,05 % + Dimethoat 0,005 %, calculated after subtracting the amine's own effect
[6] = amine 0,05 % + Dimetilan 0,0001 %, calculated after subtracting the amine's own effect
[7] = amine 1 mg/ml + Ripcord 0,01 mg/ml
[8] = amine 1 mg/ml in Aceton mixed 1 : 1 with Aceton, 2 ml per dish, 25 weevils, dead counted after 3 h
[9] = amine 1 mg/ml mixed 1 : 1 with Ripcord 0,01 mg/ml, 3 h
[10] = amine 1 mg/ml mixed 1 : 1 with Talcord 0,01 mg/ml, 3 h
[11] = Drosophila melanogaster, 1 ml 0,05%ige amine solution + 1 ml Aceton per dish, 20 flies, dead counted every 5 min, 12 times, mean values, read-out: Wirksamkeit in % Substanz allein
[12] = Sitophilus granarius, amine 1 mg/ml in Aceton mixed 1 : 1 with Aceton, 2 ml per dish, 25 weevils, dead counted after 3 h
[13] = amine 1 mg/ml + Talcord 0,01 mg/ml
[14] = drosophila melanogaster, in vivo
[15] = sitophilus granarius, in vivo, 3 h
[16] = Pyrethroid : Amin 1 : 10, amine 0,1 mg/ml, 180 min

| Compound | Wirksamkeit in % Substanz +Dimeti-lan (Drosophila melanogaster; [2]) | Wirksamkeit in % Substanz +Dimethoat (Drosophila melanogaster; [3]) | Faktor der Wirkungssteigerung bei Dime-methoat (Drosophila melanogaster; [5]) | Faktor der Wirkungssteigerung bei Dimi-tilan (Drosophila melanogaster; [6]) | Synergistischer Faktor bei Ripcord [1, 7] | Wirksamkeit in % Substanz allein [1, 8] | Wirksamkeit in % Substanz +Ripcord [1, 9] | Wirksamkeit in % Substanz +Talcord [1, 10] | mortality at 0.05 % (Drosophila melanogaster; [11]) [%] | Synergistischer Faktor bei Talcord [1, 13] | also measured |
| --- | --- | --- | --- | --- | --- | --- | --- | --- | --- | --- | --- |
| C(CCCCN1CCOCC1)CCCN1CCOCC1 [1,8-N,N-Dimorpholino-octan] | 10,4% | 23,8% | 2,62 | 3,64 | 1,56 | 44,0% | 93,2% | 50,8% |  |  | Wirksamkeit in % Substanz allein (Drosophila melanogaster; [4]): 1,3% |
| C(=Cc1ccccc1)CN1CCCC1 [1-Cinnamyl-pyrrolidin] | 55,4% | 5,8% |  | 22,2 | 3,08 |  | 97,2% | 30,8% | 0 | 3,17 | mortality at 1000 µg/mL [1, 12]: 0% |
| CCCCCCCCCN1CCCCC1CC (stereo not shown) [1-n-Nonyl-2-ethyl-piperidin] | 7,9% | 24,6% | 2,19 |  |  |  |  |  | 5.8 |  |  |
| CCCCOC(CN1CCOCC1)OCCCC [2-N-Morpholino-ethyl-di-butyl-acetal] |  |  |  |  |  |  |  |  |  |  | Wirksamkeit in % Substanz +Dimethoat (Drosophila melanogaster; [14]): 17,9%; Wirksamkeit in % Substanz +Dimeti-lan (Drosophila melanogaster; [14]): 3,3%; Wirksamkeit in % Substanz allein (Drosophila melanogaster; [14]): 0,4%; Faktor der Wirkungssteigerung bei Dime-methoat (Drosophila melanogaster; in vivo): 2,03; Faktor der Wirkungssteigerung bei Dimi-tilan (Drosophila melanogaster; in vivo): 1,16; Synergistischer Faktor bei Ripcord ([1]; in vivo): 3,17; Synergistischer Faktor bei Talcord ([1]; in vivo): 10,31; Wirksamkeit in % Substanz +Ripcord [1, 15]: 100%; Wirksamkeit in % Substanz +Talcord [1, 15]: 100%; Wirksamkeit in % Substanz allein [1, 15]: 0% |
| CCCCCC(CCCCC)N1CCCC1 [6-N-Pyrrolidino-undecan] | 75,8% | 54,2% | 1,70 | 14,48 | 1,90 | 0% | 60,0% | 58,8% |  | 6,06 | Wirksamkeit in % Substanz allein (Drosophila melanogaster; [4]): 39,6% |
| Cc1cc(OC(=O)N(C)C)nn1C(=O)N(C)C [Dimetilan, reference compound] |  |  |  |  |  |  |  |  |  |  | mortality at 0.0001 % (Drosophila melanogaster; Drosophila melanogaster, read-out: Wirksamkeit von Dimetilan): 2.5% |
| CCCCCCCCCCN1CCCCC1CC (stereo not shown) [N-1-Decyl-2-ethyl-piperidin] | 56,3% | 55,8% | 2,42 | 8,52 |  |  |  |  | 35 |  |  |
| CCCCCCCCCCN1CCCCC1 [N-1-Decyl-piperidin] |  |  |  |  |  |  |  |  |  |  | mortality at 0.005 % (Drosophila melanogaster; Drosophila melanogaster, amine 0,005 %, read-out: Sub-stanz allein): 0%; Substanz + Dime-thoat (Drosophila melanogaster; amine 0,005 % + Dimethoat 0,005 %, Dimethoat : Amin 1 : 1): 45,4%; Faktor der Wirkungs-steigerung (Drosophila melanogaster; amine 0,005 %, Dimethoat : Amin 1 : 1): 5,28; Synergistischer Faktor bei Ripcord ([1]; Pyrethroid : Amin 1 : 10): 3,09; Synergistischer Faktor bei Talcord ([1]; Pyrethroid : Amin 1 : 10): 6,72; % Wirkung Substanz +Ripcord [1, 16]: 97,2%; % Wirkung Substanz +Talcord [1, 16]: 65,2%; mortality at 100 µg/mL ([1]; Sitophilus granarius, 3 h, amine 0,1 mg/ml (as for Pyrethroid : Amin 1 : 10), read-out: % Wirkung Substanz allein): 0% |
| CCCCCCCCCCN1CCCC1 [N-1-Decyl-pyrrolidin] | 4,8% | 17,1% | 1,65 |  |  |  | 100,0% | 100,0% | 2.9 | 1,90 | mortality at 1000 µg/mL [1, 12]: 81.6% |
| C=CC(C)(CCC=C(C)C)N1CC1 (stereo not shown) [N-1-Linalyl-aziridin] | 0,42% | 21,7% | 2,67 |  | 2,99 | 0% | 97,2% | 65,2% |  | 6,72 | Wirksamkeit in % Substanz allein (Drosophila melanogaster; [4]): 0% |
| C=CC(C)(CCC=C(C)C)N1CCOCC1 (stereo not shown) [N-1-Linalyl-morpholin] | 20,0% | 30,8% | 2,22 | 3,32 | 2,92 | 0% | 92,0% | 33,2% |  | 3,42 | Wirksamkeit in % Substanz allein (Drosophila melanogaster; [4]): 11,7% |
| CCCCCCCCCCCCCCN1CCOCC1 [N-1-Tetradecyl-morpholin] | 2,5% | 57,1% | 6,64 |  | 2,03 |  | 64,0% | 5,2% | 0 |  | mortality at 1000 µg/mL [1, 12]: 0% |
| CCCCCCCCCCCCCN1CCCCC1 [N-1-Tridecyl-piperidin] | 2,3% | 54,6% | 6,35 |  | 3,05 |  | 96,0% | 17,2% | 0 | 1,77 | mortality at 0.01 % (Drosophila melanogaster; Drosophila melanogaster, amine 0,01 %, read-out: Sub-stanz allein): 0%; mortality at 0.05 % (Drosophila melanogaster; Drosophila melanogaster, amine 0,05 %, read-out: Sub-stanz allein): 0%; Substanz + Dime-thoat (Drosophila melanogaster; amine 0,01 % + Dimethoat 0,005 %, Dimethoat : Amin 1 : 2): 42,9%; Faktor der Wirkungs-steigerung (Drosophila melanogaster; amine 0,01 %, Dimethoat : Amin 1 : 2): 4,99; Substanz + Dime-thoat (Drosophila melanogaster; amine 0,05 % + Dimethoat 0,005 %, Dimethoat : Amin 1 : 10): 54,6%; Faktor der Wirkungs-steigerung (Drosophila melanogaster; amine 0,05 %, Dimethoat : Amin 1 : 10): 6,35; mortality at 1000 µg/mL [1, 12]: 0% |
| C(=CC1CCCCC1)CN1CCCC1 [N-(3-Cyclohexyl-propen-(2))-pyrrolidin] | 0% | 22,5% | 2,86 |  |  |  |  |  |  |  | Wirksamkeit in % Substanz allein (Drosophila melanogaster; [4]): 0% |
| CCCCCCCCCCN1CCCCC1C (stereo not shown) [N-Decyl-2-methyl-piperidin] | 77,9% | 66,7% |  | 2,87 |  |  |  |  | 61.3 |  |  |
| CCC/C=C(\CC)CN1CCCC1 [cis-3-N-pyrrolidino-methyl-hepten-(3)] |  |  |  |  | 1,61 | 0% | 50,8% | 16,0% |  | 1,65 |  |
| CC(C)=CCC/C(C)=C\CN1CCCCC1 [cis-8-N-Piperidino-2,6-di-methyl-octadien-(2,6)] |  |  |  |  | 2,16 | 0% | 68,0% | 26,8% |  | 2,76 |  |
| N-Hydrinden-morpholin |  |  |  |  | 1,40 | 0% | 44,0% | 30,8% |  | 3,17 |  |
| N-Hydrinden-piperidin |  |  |  |  | 1,36 | 0% | 42,8% | 57,2% |  | 5,90 |  |
| N-Lactosido-pyrrolidin |  |  |  |  | 2,70 | 0% | 85,2% | 20,0% |  | 2,06 |  |
